Literature values as cited in patent US9861587B2, “Composition and method for treating ketosis in cows” (RP FEED COMPONENTS, LLC, priority 2011, dated 2018).

Legend:
ketotic cows = details: two ketotic cows; daily injections or oral administration of 12.5 g
bovine ketosis = details: oral administration
[1] = test system: cases of clinical ketosis; details: six cases; orally 40 g once daily for seven days; 21-day examination period

Row | Molecule | treatment of ketosis (ketotic cows) | symptoms of bovine ketosis (bovine ketosis) | serum ketone levels [1]
1 | CSCCC(N)C(=O)O (racemic) [DL-methionine] | unsuccessful treatment |  | 
2 | DL-α-hydroxy-γ-methylmercaptobutyrate calcium [methionine hydroxy analog (MHA)] |  | aided in alleviating symptoms of bovine ketosis | fell slowly over a 21-day examination period, but never returned to normal levels
